Source: patent publication US20220323410A1, “OXYTOCIN ANTAGONIST DOSING REGIMENS FOR PROMOTING EMBRYO IMPLANTATION AND PREVENTING MISCARRIAGE” (ObsEva S.A., priority 2019, published 2022)
Each block holds one compound with its values, some of them ahead of it.

Tests used:
CYP2D6 = CYP2D6 (Homo sapiens, UniProt P10635); test: Metabolism by CYP2D6 isoform; format: in vitro ADME; conditions: substantially pure (3E) diastereomer; also CYP2C19
Protocol: (§1) At five time points over the course of a 45 minute experiment, the compounds were analyzed by LC-MS/MS. The percentage of each compound remaining at each time point, along with the metabolic half-lives of each compound in the presence of each cytochrome P450 isoform, are indicated in Tables 10-12, below.

[1] = Phase 2 clinical study of Example 1: serum level of compound (II) at embryo transfer; format: in vivo; conditions: female, human, mean
From the text: (§2) A total of 247 female subjects were selected for treatment based on a variety of inclusion criteria. Of these, 244 subjects completed the study. The study was open to healthy female volunteers from 18 to 36 years of age that had previously undergone up to one IVF or ICSI cycle that resulting in a negative pregnancy test as assessed by hCG detection, despite the transfer of at least one embryo of good quality, which was defined as an embryo having from six to eight blastomeres of uniform size and shape on the day of embryo transfer, ooplasm having no granularity, absence of multinucleation, and a maximum fragmentation of 10%. Subjects included in the study had at least one functional ovary and were capable of communicating with the investigator and research staff and complying with the requirements of the study protocol. Data are presented in the form of mean (standard deviation).
Subjects included in the study underwent an initial screening period beginning up to 12 weeks prior to the day of oocyte retrieval from the subject. During this 12-week period, subjects underwent physical and gynecological examination in preparation for oocyte retrieval. This analysis included a recordation of the subjects' vital signs, hematology and biochemistry analysis of blood samples withdrawn from the subjects, urinary analysis, and a comprehensive review of the subjects' medical histories.
At the conclusion of the screening period, subjects underwent controlled ovarian hyperstimulation by administration of a GnRH antagonist so as to prevent a premature rise in serum LH concentration. Concurrent pre-treatment with an oral contraceptive prior to controlled ovarian hyperstimulation was allowed, but not required. Final follicular maturation was performed with a single administration of hCG to the subject. […]
(§3) The embryo transfer procedure was conducted three days after the oocyte retrieval day (OPU+3 days). Subjects undergoing embryo transfer were monitored prior to initiating the procedure. […]

[2] = tested on: female human subjects undergoing embryo transfer therapy; test: Clinical studies of embryo implantation in subjects undergoing embryo transfer therapy (Example 1); format: in vivo
From the text: as §2
Subjects included in the study underwent an initial screening period beginning up to 12 weeks prior to the day of oocyte retrieval from the subject. During this 12-week period, subjects underwent physical and gynecological examination in preparation for oocyte retrieval. […]
as §3

[3] = tested on: uterine contractions in human subjects; test: Uterine contractility in human subjects (Example 4); conditions: in vivo
From the text: Values along the y-axis represent the quantity of uterine contractions (UC) per minute.

[4] = tested on: endometrial blood flow in human subjects; test: Endometrial blood flow in human subjects (Example 4); conditions: in vivo
From the text: Values along the y-axis represent endometrial flow index (FI), a parameter that is proportional to the volumetric quantity of blood that circulates through the endometrium in a given period of time.
Values along the y-axis represent endometrial vascularity index (VI), a parameter that is proportional to the total quantity of blood vessels in a subject's endometrium.
Values along the y-axis represent vascularity flow index (VFI), a parameter that is proportional to the total quantity of blood that circulates through a given volume of a subject's endometrium.

[5] = tested on: subjects undergoing embryo transfer; test: Pregnancy and live birth rates, clinical study in subjects undergoing embryo transfer; format: in vivo, human; conditions: post hoc, pre-dose serum P4 quartiles 1-3; significant dose-dependent fashion (p<0.02)
Protocol: From one to two embryos of good quality were transferred to each subject. To reduce uterine contractions at the time of embryo transfer, soft or ultra-soft catheters were used and contact with the uterine fundus was avoided. Any difficulties that occurred during the embryo transfer procedure were recorded, including instances in which uterine sounding or cervical dilation were required, instances in which a harder catheter was required, or instances in which blood was found in any part of the catheter.
Approximately 1 hour following embryo transfer, subjects underwent a final physical examination and were subsequently discharged from the clinical unit until the first follow-up visit, which occurred at about 14 days following oocyte retrieval (OPU+14 days). At this time, subjects underwent a physical examination as well as a blood sample analysis to assess pregnancy by detection of hCG. […] Pregnancy status was monitored by detecting embryo heartbeat. […]
Positive blood pregnancy test at 14 days following oocyte retrieval and positive embryo heartbeat at 10 weeks following oocyte retrieval were assessed in the same manner as described above. Change from baseline to the time of embryo transfer in uterine contraction rate was analyzed by the Wilcoxon Rank Sum Test by comparing the uterine contraction rate associated with each dose to that observed with placebo-treated subjects.

CYP3A4 = CYP3A4 (Homo sapiens, UniProt P08684); test: Metabolism by CYP3A4 isoform; format: in vitro ADME; conditions: substantially pure compound (II)
Chain of CYP3A4 (P08684 whole entry, canonical isoform): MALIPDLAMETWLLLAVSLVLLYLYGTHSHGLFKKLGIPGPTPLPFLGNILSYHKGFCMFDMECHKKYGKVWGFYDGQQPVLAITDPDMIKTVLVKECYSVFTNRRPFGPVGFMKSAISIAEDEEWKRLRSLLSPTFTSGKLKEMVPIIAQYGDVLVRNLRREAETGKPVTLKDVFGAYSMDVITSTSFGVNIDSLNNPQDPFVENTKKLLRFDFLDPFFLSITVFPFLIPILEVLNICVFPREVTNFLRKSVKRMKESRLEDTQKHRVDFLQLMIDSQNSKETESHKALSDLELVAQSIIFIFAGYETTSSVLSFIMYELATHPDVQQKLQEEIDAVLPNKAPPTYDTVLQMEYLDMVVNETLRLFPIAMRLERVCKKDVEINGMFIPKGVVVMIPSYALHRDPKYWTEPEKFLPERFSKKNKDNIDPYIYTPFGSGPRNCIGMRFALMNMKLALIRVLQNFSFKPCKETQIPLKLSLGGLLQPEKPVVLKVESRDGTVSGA
Protocol: as §1

[6] = Concentration of compound (II) after single oral dose in healthy female volunteers; format: in vivo, human; conditions: oral administration of either the 900 mg or the 1,800 mg dose; FIG. 6
Protocol: (§4) Particularly, subjects were pre-treated with estradiol valerate at a dosage of 2 mg administered 3 times per day (TID) for 16 days. Administration of estradiol valerate was followed by vaginal progesterone at a dosage of 200 mg administered TID.

uterine contractions = test: Uterine contractions by ultrasound in healthy female volunteers; format: in vivo, human; conditions: 1,800 mg dose
Protocol: as §4
(§5) These assessments included measurements of uterine contractions by ultrasound and uterine perfusion by a 3D-power Doppler technique.
(§6) Mean and median changes in uterine contraction frequency and endometrial vascularity indices (particularly, endometrial flow index (FI), vascularity index (VI), and vascularity flow index (VFI)) were calculated. […] Differences in endometrial mRNA expression were identified and assessed for statistical significance.

endometrial perfusion = test: Uterine perfusion by 3D-power Doppler in healthy female volunteers; format: in vivo, human; conditions: baseline to 24 hours; both 900 mg and 1,800 mg doses
Protocol: as §4, §5, §6

[7] = tested on: endometrial RNA transcript expression; test: Endometrial RNA transcript expression by RNA-Seq in healthy female volunteers; format: in vivo, human; conditions: 900 mg
Protocol: as §4, §5, §6
Using an RNA-Seq assay, each subject's expression of a variety of genes, including DPP4, CNTNAP3, CNTN4, CXCL12, TNXB, CTSE, OLFM4, KRT5, KRT6A, and IDO2, was then assessed to determine whether the expression of each gene increased, decreased, or underwent no significant change due to administration of the compound or placebo.

[8] = tested on: spontaneous uterine contractions; conditions: cited from earlier work
[9] = crystal form with XRPD peaks of Table 1; cited from earlier work

Chain of CYP2D6 (P10635 whole entry, canonical isoform): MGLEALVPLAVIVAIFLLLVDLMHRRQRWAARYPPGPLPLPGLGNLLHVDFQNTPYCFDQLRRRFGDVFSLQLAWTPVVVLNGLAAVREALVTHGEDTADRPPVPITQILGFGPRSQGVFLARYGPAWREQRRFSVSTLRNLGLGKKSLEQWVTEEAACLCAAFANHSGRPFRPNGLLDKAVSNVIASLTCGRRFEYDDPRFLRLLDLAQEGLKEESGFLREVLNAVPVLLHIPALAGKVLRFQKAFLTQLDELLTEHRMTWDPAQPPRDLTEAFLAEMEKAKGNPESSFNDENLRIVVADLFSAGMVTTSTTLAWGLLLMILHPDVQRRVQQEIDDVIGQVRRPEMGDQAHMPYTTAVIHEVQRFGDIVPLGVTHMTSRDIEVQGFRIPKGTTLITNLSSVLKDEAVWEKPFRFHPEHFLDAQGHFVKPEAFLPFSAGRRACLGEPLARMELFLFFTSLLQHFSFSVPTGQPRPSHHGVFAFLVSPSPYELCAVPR

Structure (SMILES): CO/N=C1\C[C@@H](CO)N(C(=O)c2ccc(-c3ccccc3C)cc2)C1 [(3E) isomer, (3E,5S)-5-(hydroxymethyl)-1-[(2′-methyl-1,1′-biphenyl-4-yl)carbonyl]pyrrolidin-3-one O-methyloxime]
Preferential metabolism by cytochrome P450 isoform (CYP2D6): preferentially metabolized by cytochrome P450 isoforms 2D6 (CYP2D6) and 2C19 (CYP2C19)

concentration at 4 hours ([1]; 100 mg oral dose about 4 hours prior to embryo transfer, n = 62): 484 ng/mL
concentration at 4 hours ([1]; 300 mg oral dose about 4 hours prior to embryo transfer, n = 60): 1450 ng/mL
concentration at 4 hours ([1]; 900 mg oral dose about 4 hours prior to embryo transfer, n = 60): 4160 ng/mL
Time at which maximum concentration is reached [6]: about 4 hours
Structure (SMILES): CO/N=C1/C[C@@H](CO)N(C(=O)c2ccc(-c3ccccc3C)cc2)C1 [compound (II), (3Z,5S)-5-(hydroxymethyl)-1-[(2′-methyl-1,1′-biphenyl-4-yl)carbonyl]pyrrolidin-3-one O-methyloxime]
successful embryo implantation rate ([2]; dose-dependent, particularly strong at pre-treatment serum P4 below 320 nM): improve successful embryo implantation rate
risk of embryo implantation failure ([2]; human subjects that previously underwent ovarian hyperstimulation and oocyte retrieval): reduce the risk of embryo implantation failure
uterine contractility [3]: reduce uterine contractility
flow of blood to the endometrium [4]: augment the flow of blood to the endometrium
Pregnancy and live-birth rates versus placebo group [5]: overall increase in pregnancy and live-birth rates in the treatment arms versus the placebo group
Preferential metabolism by cytochrome P450 isoform (CYP3A4): preferentially metabolized by cytochrome P450 isoform 3A4 (CYP3A4)
Proportion of subjects showing less than one uterine contraction per minute versus placebo (uterine contractions; p=0.0121): significance was seen at the 8-hour time point
Number of uterine contractions per minute versus placebo (uterine contractions; p=0.0923 at 4 hours, p=0.0081 at 8 hours): contraction-reducing effects were observed from the 4-hour time point onwards
Endometrial perfusion parameters, median values (endometrial perfusion): marked and sustained increases in median values
mRNA expression in endometrial biopsy tissue compared to placebo [7]: No differences in mRNA expression
Reduction in spontaneous uterine contractions ([8]; 10, 30, and 60 mg/kg, anesthetized late-term pregnant rats): dose-dependent reduction in spontaneous uterine contractions
Inhibitory activity with respect to uterine contraction versus (3E) diastereomer ([8]; same vehicle, same model organism): markedly higher than that of the substantially pure (3E) diastereomer

Structure (SMILES): CO/N=C1/C[C@@H](CO)N(C(=O)c2ccc(-c3ccccc3C)cc2)C1 [crystal form of compound (II), (3Z,5S)-5-(hydroxymethyl)-1-[(2′-methyl-1,1′-biphenyl-4-yl)carbonyl]pyrrolidin-3-one O-methyloxime]
stability to aqueous media and physical stress [9]: enhanced stability to aqueous media and physical stress
